Measurements: patent publication US9302999B2, “Substituted triazoles as herbicides” (E. I. DU PONT DE NEMOURS AND COMPANY, priority 2012, dated 2016)

How the values were obtained:
Type in all cases: in vivo
[1] = test system: ryegrass, Italian (Italian ryegrass, Lolium multiflorum); assay: Test F pre-/postemergence: ryegrass, Italian
Method in brief: (§1)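 0–100 visual control scores, taken 14–21 d after application in the greenhouse. Preemergence treatment was made to silt loam soil at sowing. Postemergence sprays hit 1- to 4-leaf plants (2–18 cm) in peat/vermiculite mix. Surfactant-containing non-phytotoxic solvent served as the vehicle.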

[2] = test system: johnsongrass (Sorghum halepense); assay: Test F pre-/postemergence: johnsongrass; conditions: Preemergence
Method in brief: as §1

[3] = test system: barley, winter (winter barley, Hordeum vulgare); assay: Test D pre-/postemergence: barley, winter
Method in brief: (§2)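 Scores run from 0 (no effect) to 100 (complete control), assigned by visual comparison with controls after 14 to 21 days in a controlled environment. Both preemergence application to silt loam and postemergence application to 1- to 4-leaf plants were tested.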

[4] = test system: chamomile (scentless chamomile, Matricaria inodora); assay: Test D pre-/postemergence: chamomile
Method in brief: as §2

[5] = test system: nutsedge, yellow (yellow nutsedge, Cyperus esculentus); assay: Test F pre-/postemergence: nutsedge, yellow; conditions: Preemergence
Method in brief: as §1

[6] = test system: waterhemp (common waterhemp, Amaranthus rudis); assay: Test F pre-/postemergence: waterhemp; conditions: Preemergence
Method in brief: as §1

[7] = test system: field violet (Viola arvensis); assay: Test D pre-/postemergence: field violet
Method in brief: as §2

[8] = test system: wheat, spring (spring wheat, Triticum aestivum); assay: Test D pre-/postemergence: wheat, spring
Method in brief: as §2

[9] = test system: soybean (Glycine max); assay: Test F pre-/postemergence: soybean
Method in brief: as §1

[10] = test system: oilseed rape (Brassica napus); assay: Test D pre-/postemergence: oilseed rape
Method in brief: as §2

[11] = Postemergence, 8 g ai/ha, scale 0 to 100
[12] = Postemergence, 16 g ai/ha, scale 0 to 100
[13] = Postemergence, 31 g ai/ha, scale 0 to 100
[14] = Postemergence, 62 g ai/ha, scale 0 to 100
[15] = Postemergence, 125 g ai/ha, scale 0 to 100
[16] = Preemergence, 8 g ai/ha, scale 0 to 100, 0 no effect, 100 complete control
[17] = Preemergence, 16 g ai/ha, scale 0 to 100, 0 no effect, 100 complete control
[18] = Preemergence, 31 g ai/ha, scale 0 to 100, 0 no effect, 100 complete control
[19] = Preemergence, 125 g ai/ha, scale 0 to 100
[20] = 16 g ai/ha, scale 0 to 100, 0 no effect, 100 complete control
[21] = 31 g ai/ha, scale 0 to 100, 0 no effect, 100 complete control
[22] = Postemergence, 31 g ai/ha, scale 0 to 100 (0 no effect, 100 complete control)
[23] = Postemergence, 62 g ai/ha, scale 0 to 100 (0 no effect, 100 complete control)
[24] = Postemergence, 125 g ai/ha, scale 0 to 100, 0 no effect, 100 complete control
[25] = Preemergence, 62 g ai/ha, scale 0 to 100
[26] = 8 g ai/ha, scale 0 to 100, 0 no effect, 100 complete control

Structure (SMILES): CCOc1nn(-c2ccc(F)cc2)nc1Cc1ccnc(C(F)(F)F)c1 [Compound 196, 4-[[5-ethoxy-2-(4-fluorophenyl)-2H-1,2,3-triazol-4-yl]methyl]-2-(trifluoromethyl)pyridine]
- Plant response rating, Ryegrass, Italian [1, 11]: 15
- Plant response rating, Ryegrass, Italian [1, 12]: 20
- Plant response rating, Ryegrass, Italian [1, 13]: 40
- Plant response rating, Ryegrass, Italian [1, 14]: 70
- Plant response rating, Ryegrass, Italian [1, 15]: 80
- Plant response rating, Ryegrass, Italian [1, 16]: 0
- Plant response rating, Ryegrass, Italian [1, 17]: 40
- Plant response rating, Ryegrass, Italian [1, 18]: 75
- Plant response rating, Ryegrass, Italian [1, 19]: 100
- Plant response rating, Johnsongrass [2, 20]: 65
- Plant response rating, Johnsongrass [2, 21]: 65
- Plant response rating, Johnsongrass ([2]; 62 g ai/ha, scale 0 to 100): 95
- Plant response rating, Johnsongrass ([2]; 125 g ai/ha, scale 0 to 100): 98
- Plant response rating: Barley, Winter [3, 22]: 20
- Plant response rating: Barley, Winter [3, 23]: 35
- Plant response rating: Barley, Winter [3, 24]: 40
- Plant response rating, Barley, Winter [3, 12]: 15
- Plant response rating, Barley, Winter [3, 17]: 5
- Plant response rating, Barley, Winter [3, 18]: 10
- Plant response rating, Barley, Winter [3, 25]: 15
- Plant response rating, Barley, Winter [3, 19]: 40
- Plant response rating: Chamomile [4, 22]: 70
- Plant response rating: Chamomile [4, 23]: 75
- Plant response rating: Chamomile [4, 24]: 85
- Plant response rating, Chamomile [4, 12]: 60
- Plant response rating, Chamomile [4, 17]: 55
- Plant response rating, Chamomile [4, 18]: 85
- Plant response rating, Chamomile [4, 25]: 100
- Plant response rating, Chamomile [4, 19]: 100
- Plant response rating, Nutsedge, Yellow [5, 26]: 0
- Plant response rating, Nutsedge, Yellow [5, 20]: 0
- Plant response rating, Nutsedge, Yellow [5, 21]: 0
- Plant response rating, Nutsedge, Yellow ([5]; 125 g ai/ha, scale 0 to 100): 75
- Plant response rating, Waterhemp [6, 26]: 50
- Plant response rating, Waterhemp [6, 20]: 95
- Plant response rating, Waterhemp [6, 21]: 98
- Plant response rating, Waterhemp ([6]; 125 g ai/ha, scale 0 to 100): 100
- Plant response rating: Field Violet [7, 22]: 85
- Plant response rating: Field Violet [7, 23]: 95
- Plant response rating: Field Violet [7, 24]: 100
- Plant response rating, Field Violet [7, 12]: 80
- Plant response rating, Field Violet [7, 17]: 80
- Plant response rating, Field Violet [7, 18]: 95
- Plant response rating, Field Violet [7, 25]: 100
- Plant response rating, Field Violet [7, 19]: 100
- Plant response rating: Wheat, Spring [8, 22]: 25
- Plant response rating: Wheat, Spring [8, 23]: 35
- Plant response rating: Wheat, Spring [8, 24]: 35
- Plant response rating, Wheat, Spring [8, 12]: 15
- Plant response rating, Wheat, Spring [8, 17]: 0
- Plant response rating, Wheat, Spring [8, 18]: 5
- Plant response rating, Wheat, Spring [8, 25]: 5
- Plant response rating, Wheat, Spring [8, 19]: 25
- Plant response rating, Soybean [9, 11]: 50
- Plant response rating, Soybean [9, 12]: 60
- Plant response rating, Soybean [9, 13]: 65
- Plant response rating, Soybean [9, 14]: 70
- Plant response rating, Soybean [9, 15]: 80
- Plant response rating, Soybean [9, 16]: 0
- Plant response rating, Soybean [9, 17]: 0
- Plant response rating, Soybean [9, 18]: 20
- Plant response rating, Soybean [9, 19]: 35
- Plant response rating: Oilseed Rape [10, 22]: 100
- Plant response rating: Oilseed Rape [10, 23]: 100
- Plant response rating: Oilseed Rape [10, 24]: 100
- Plant response rating, Oilseed Rape [10, 12]: 80
- Plant response rating, Oilseed Rape [10, 17]: 5
- Plant response rating, Oilseed Rape [10, 18]: 15
- Plant response rating, Oilseed Rape [10, 25]: 100
- Plant response rating, Oilseed Rape [10, 19]: 100
